Laboratory results as given in the kinase profiling compilation of Christmann-Franck et al. (2016).

Target: SGK1 (human) (UniProt O00141)
Test: Flashplate

SGK1 (human), sequence (O00141 whole entry, looked up): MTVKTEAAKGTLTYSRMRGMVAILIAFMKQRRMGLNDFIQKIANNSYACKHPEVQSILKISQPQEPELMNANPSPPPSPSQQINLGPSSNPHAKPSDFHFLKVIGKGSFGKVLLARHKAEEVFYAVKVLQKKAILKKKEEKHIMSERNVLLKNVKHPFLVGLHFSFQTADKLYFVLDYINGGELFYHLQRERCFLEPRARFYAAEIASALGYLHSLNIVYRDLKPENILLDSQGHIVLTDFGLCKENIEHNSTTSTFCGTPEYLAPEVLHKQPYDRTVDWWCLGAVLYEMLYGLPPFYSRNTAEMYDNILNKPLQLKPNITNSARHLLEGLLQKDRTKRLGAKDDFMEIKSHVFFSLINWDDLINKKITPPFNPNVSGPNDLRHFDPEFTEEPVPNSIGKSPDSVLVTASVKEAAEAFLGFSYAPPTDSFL

Row | Structure (SMILES) | Ki
1 | CCc1nc(-c2cccc(C)c2)c(-c2ccnc(NC(=O)c3ccccc3)c2)s1 | > 10 µM
2 | Cc1cc(OC[C@@H]2CC[C@H](C(=O)O)C2)c(NC(=O)Nc2cnc(C#N)cn2)cc1Cl | 6.31 µM
3 | Nc1nonc1-n1nnc(C(=O)N/N=C/c2ccncc2)c1-c1ccccc1 | > 10 µM
4 | CC(C)N(C(=O)Nc1ccc2nc(-c3ccco3)c(-c3ccco3)nc2c1)C(C)C | > 10 µM
5 | COc1cc(Nc2ncc([N+](=O)[O-])c(Nc3ccccc3C(N)=O)n2)cc(OC)c1OC | 0.2 µM
6 | NC(=O)c1ccc(-c2c[nH]c3nccc(Cl)c23)cc1 | 0.251 µM
7 | CCOc1nc(C(=O)NCc2ccccc2S(N)(=O)=O)cc(N)c1C#N | > 6.31 µM
8 | Nc1nccc2scc(-c3ccc(NC(=O)Nc4cccc(Cl)c4)cc3)c12 | > 10 µM
9 | CCOC(=O)c1ccc2[nH]c3c(c2c1)CCNC3=O | 6.31 µM
10 | CCn1c2cc(Cl)c(F)cc2c(=O)c2c(=O)o[nH]c21 | > 10 µM
11 | O=C(Nc1cnccn1)Nc1ccnc2ccccc12 | 1.26 µM
12 | NC(=O)c1cccc2[nH]c(-c3ccc(NC(=O)c4cccc(S(=O)(=O)N5CCOCC5)c4)cc3)nc12 | > 10 µM
13 | COc1cc(C)c(Cl)cc1NC(=O)Nc1cnc(C#N)cn1 | > 10 µM
14 | O[C@H]1CC[C@H](Nc2cc(Cl)nc(-c3c[nH]c4ncccc34)n2)CC1 | 1 µM
15 | CC(C)Oc1nccn2c(-c3ccnc(NCC(C)(C)CO)n3)c(-c3ccc(F)cc3F)nc12 | > 10 µM
16 | O=C1CCCc2oc3cc(C(F)(F)F)ccc3c(=O)c21 | > 10 µM
17 | COc1cc(-c2ccc3c(c2)Nc2ccc(CCOc4ccc(N5CCOCC5)cc4)cc2NC3=O)ccc1OCC(O)CO (stereo not drawn) | > 10 µM
18 | N[C@H](COc1cncc(-c2ccc(F)cc2)c1)Cc1c[nH]c2ccccc12 | > 10 µM
19 | Nc1ncnc2onc(-c3ccc(NC(=O)Nc4cccc(C(F)(F)F)c4)cc3)c12 | > 10 µM

Row | Structure (SMILES) | Ki
20 | Cc1n[nH]c2ncc(C#N)c(-c3ccccc3)c12 | 3.98 µM
21 | O=c1c(NCc2ccc(Cl)cc2)c(Nc2ccncc2)c1=O | 2 µM
22 | COc1cc(-c2ccc3c(c2)Nc2ccc(C(=O)NCCNC(C)=O)cc2NC3=O)ccc1O | 10 µM
23 | Nc1ncnc(Nc2cc(CNC(=O)C(F)(F)F)c(O)c(-c3ccc(Cl)cc3)c2)n1 | > 10 µM
24 | CCCC(=O)Nc1nn(C(=O)CC)c2nc3ccccc3cc12 | > 10 µM
25 | N#Cc1ccc2[nH]c(O)c(-c3ccc(CN4CCOCC4)cn3)c2c1 | 3.16 µM
26 | Cc1cc(C)cc(NC(=O)Nc2ccc(NC(=O)c3csc4ncnc(N)c34)cc2)c1 | > 10 µM
27 | Cc1n[nH]c2ccc(-c3cncc(OCCN)c3)cc12 | 2 µM
28 | CC(C)(C)NC(=O)c1ccc2nc3[nH]c4ccccc4c3nc2c1 | > 10 µM
29 | Nc1nccc2scc(-c3ccc(NC(=O)Nc4cccc(F)c4)cc3)c12 | > 10 µM
30 | COc1ccc(-c2cc3nccn3c(Nc3ncccc3C(N)=O)n2)cc1OC | > 10 µM
31 | c1ccc(CSc2nc(-c3ccncc3)n[nH]2)cc1 | 7.94 µM
32 | Cn1nc(C(F)(F)F)c2c(=O)c3cc(Cl)ccc3n(O)c21 | > 10 µM
33 | COc1cccc([C@@H](C)NC(=O)c2ccc(-c3ccncc3)cc2)c1 | 0.398 µM
34 | CN(c1ccccc1CNc1nc(N)nc2[nH]ccc12)S(C)(=O)=O | > 10 µM
35 | COc1ccc(-c2ccc(NC(=O)Nc3cccc(Br)c3)cc2)c2c(N)noc12 | > 10 µM
36 | NCCCn1cc(-c2cc(-c3cc4ccccc4s3)c3[nH]ncc3c2)c2nc(N)ncc21 | 0.501 µM
37 | CC(C)(C)OC(=O)n1ncc2cc(Nc3c(NCc4ccc(S(N)(=O)=O)cc4)c(=O)c3=O)ccc21 | > 10 µM

Results, then the compound that gave them:

Row | Ki | Structure (SMILES)
38 | > 10 µM | Cc1c(Cl)c(N2CCC(CN)C2)nc2[nH]cc(C(=O)O)c(=O)c12 (stereo not drawn)
39 | > 10 µM | Cc1ccc2c(c1)NC(=O)c1ccccc1N2
40 | 0.501 µM | COc1cccc([C@@H](C)NC(=O)c2cnc(-c3ccncc3)s2)c1
41 | > 10 µM | C[C@@H](Nc1nccc(-c2c(-c3ccc(F)cc3)nc3occn23)n1)c1ccccc1
42 | > 10 µM | NCCCNS(=O)(=O)c1cccc(C(=O)Nc2ccc(-c3n[nH]c(=O)c4ccccc34)cc2)c1
43 | > 10 µM | Cn1nc(N)c2c(-c3ccc(NC(=O)Nc4cccc(C(F)(F)F)c4)cc3)cncc21
44 | 5.01 µM | COc1ccc(/C=C2/S/C(=N/c3ccccc3)NC2=O)cc1O
45 | > 10 µM | Cc1cc(N2CCOCC2)cc2[nH]c(-c3c(NC[C@@H](O)c4cccc(Cl)c4)cc[nH]c3=O)nc12
46 | 0.631 µM | Nc1ncc(-c2ccncc2)c2scc(-c3ccc(NC(=O)Nc4cc(C(F)(F)F)ccc4F)cc3)c12
47 | 1 µM | COc1ccc(C(=O)Nc2n[nH]c3ccc(-c4cn(Cc5ccccc5)nn4)cc23)cc1OC
48 | > 6.31 µM | NC(=O)c1ccc(N[C@H]2CCCC[C@H]2N)nc1Nc1cccc(Cl)c1
49 | 3.98 µM | CS(=O)(=O)NCCOc1cncc(-c2ccc3cnccc3c2)c1
50 | > 10 µM | CCOC(=O)c1cn(-c2ccc(O)cc2C)c2cc(-c3ccncc3)ccc2c1=O
51 | > 10 µM | CCN(CC)C(=O)Nc1ccc2nc(-c3ccco3)c(-c3ccco3)nc2c1
52 | > 10 µM | COC(=O)c1ccccc1-c1ccc2c(c1)Nc1ccccc1NC2=O
53 | 5.01 µM | Cc1cc(O)ccc1-n1c2cc(Cl)ccc2c(=O)c2c(N)nc(N)nc21
54 | 3.98 µM | CCS(=O)(=O)c1ccc(-c2cncc3sc(C(N)=O)cc23)cc1
55 | 1.58 µM | O=C(Nc1n[nH]c2nc3ccccc3cc12)c1ccncc1
56 | 6.31 µM | CSc1ccccc1CNc1ncc([N+](=O)[O-])c(NCC2CCC(CN)CC2)n1 (stereo not drawn)
57 | > 10 µM | CCCS(=O)(=O)Nc1ccc(-c2ccc3[nH]nc(NC(C)=O)c3c2)cc1
58 | > 10 µM | Cc1cccc(NC(=O)Nc2ccc3c(c2)CCc2sc4ncnc(N)c4c2-3)c1

Row | Ki | Structure (SMILES)
59 | > 10 µM | NC(=O)c1cc(Cl)cc2[nH]c(-c3ccc(C4CCCNC4)cc3F)nc12 (stereo not drawn)
60 | > 10 µM | CCc1nc2c(c3cc(OC)c(OC)cc13)C(=O)NC2=O
61 | 3.98 µM | O=C1Nc2ccccc2Nc2nnc(I)cc21
62 | > 10 µM | CC1(C)CC(=O)C2=C(C1)Nc1cc(Cl)ccc1S2
63 | > 10 µM | Cc1n[nH]c2c1C(c1ccccc1I)C(C#N)=C(N)O2 (stereo not drawn)
64 | > 10 µM | Nc1ncnc2c1c(-c1cccc(OCc3ccccc3)c1)cn2[C@H]1C[C@H](CN2CCCC2)C1
65 | > 10 µM | Cc1cc(NC(=O)CCNC(=O)Nc2nc(C)c(-c3ccc(-n4cccn4)cc3)s2)no1
66 | 2 µM | O=c1c(NCc2cccc(C(F)(F)F)c2)c(Nc2ccncc2)c1=O
67 | 7.94 µM | Nc1ccc(-c2csc3c(/C=C/c4nc5ccccc5[nH]4)cnc(N)c23)cc1
68 | 0.02 µM | COc1cccc([C@@H](C)NC(=O)N2CC=C(c3c[nH]c4ncccc34)CC2)c1
69 | > 10 µM | O=C(O)c1ccc(N2C(=O)c3ccccc3C2=O)cc1O
70 | > 10 µM | CN(C)CCCC(=O)Nc1n[nH]c2nnc(-c3cccc(F)c3F)cc12
71 | 6.31 µM | Cc1cnc(Nc2cccc(S(N)(=O)=O)c2)nc1Nc1ccc(OCC(N)=O)cc1
72 | > 10 µM | CC1CSc2c(C(=O)O)c(=O)c3cc(F)c(N4CC[C@@H](N)C4)cc3n21 (stereo partly drawn)
73 | > 10 µM | CCOc1nc(NC(=O)Cc2cc(OC)c(S(C)(=O)=O)cc2OC)cc(N)c1C#N
74 | 0.631 µM | COC(=O)c1c(-c2ccc(NC(=O)Nc3ccccc3)cc2)c2c(N)ncnn2c1C
75 | 2 µM | CN(C)CC(=O)Nc1n[nH]c2ccc(-c3cn(Cc4ccccc4)nn3)cc12
76 | > 10 µM | NC(=O)c1c(OCc2c(F)cc(Br)cc2F)nsc1NC(=O)NCCCCN1CCCC1
77 | 6.31 µM | Cc1cccc(NC(=O)Nc2ccc(-c3cnc4c(-c5cnn(C)c5)cnn4c3N)cc2)c1
78 | > 10 µM | Cc1cc(Nc2cc(N3CCN(C)CC3)nc(/C=C/c3ccccc3)n2)n[nH]1
